Measurements from paper PMC4581723, “Evaluation of In Vitro Activity of the Class I PI3K Inhibitor Buparlisib (BKM120) in Pediatric Bone and Soft Tissue Sarcomas” (PLoS ONE, 2015).
Read-outs that look alike come from different tables or passages of the source.

Key:
TC-174 = assay: Cell viability assay (MTT), 72 h; assay type: cell-based; details: TC-174 (ES), PIK3CA WT, read-out: Buparlisib cell viability IC50
A4573 = assay: Cell viability assay (MTT), 72 h; assay type: cell-based; details: A4573 (ES), PIK3CA WT, read-out: Buparlisib cell viability IC50
6647 = assay: Cell viability assay (MTT), 72 h; assay type: cell-based; details: 6647 (ES), PIK3CA WT, read-out: Buparlisib cell viability IC50
5838 = assay: Cell viability assay (MTT), 72 h; assay type: cell-based; details: 5838 (ES), PIK3CA WT, read-out: Buparlisib cell viability IC50
SKES = assay: Cell viability assay (MTT), 72 h; assay type: cell-based; details: SKES (ES), PIK3CA WT, read-out: Buparlisib cell viability IC50
SK-N-MC = assay: Cell viability assay (MTT), 72 h; assay type: cell-based; details: Homo sapiens, SK-N-MC (ES), PIK3CA WT, read-out: Buparlisib cell viability IC50
TTC-475 = assay: Cell viability assay (MTT), 72 h; assay type: cell-based; details: TTC-475 (ES), PIK3CA WT, read-out: Buparlisib cell viability IC50
KHOS = assay: Cell viability assay (MTT), 72 h; assay type: cell-based; details: KHOS (OS), PIK3CA WT, read-out: Buparlisib cell viability IC50
HOS = assay: Cell viability assay (MTT), 72 h; assay type: cell-based; details: Homo sapiens, HOS (OS), PIK3CA WT, read-out: Buparlisib cell viability IC50
MNNG = assay: Cell viability assay (MTT), 72 h; assay type: cell-based; details: MNNG (OS), read-out: Buparlisib cell viability IC50
KHOS 312H = assay: Cell viability assay (MTT), 72 h; assay type: cell-based; details: KHOS 312H (OS), read-out: Buparlisib cell viability IC50
SJSA = assay: Cell viability assay (MTT), 72 h; assay type: cell-based; details: SJSA (OS), PIK3CA WT, read-out: Buparlisib cell viability IC50
HT161 = assay: Cell viability assay (MTT), 72 h; assay type: cell-based; details: HT161 (OS), PIK3CA WT, read-out: Buparlisib cell viability IC50
A204 = assay: Cell viability assay (MTT), 72 h; assay type: cell-based; details: Homo sapiens, A204 (RMS), PIK3CA WT, read-out: Buparlisib cell viability IC50
phospho-Akt (S473) [1] = assay: Immunoblot (quantitative) of Akt phosphorylation; assay type: cell-based; details: for IC50: 1 h treatment
Protocol: (§1) Cells were incubated for approximately one hour on ice in lysis buffer (50 mM Tris pH 7.6, 0.5% NP-40, 10% glycerol, 30 mM NaCl, 1 mM EDTA) supplemented with Complete Mini EDTA-free protease inhibitor cocktail (Roche), 1 mM Na3VO4, and 1 mM NaF. […] Secondary antibodies conjugated to HRP were sheep anti-mouse IgG from GE Healthcare and goat anti-rabbit IgG from Santa Cruz Biotechnology. Secondary antibodies conjugated to infrared dyes were IRDye 800CW goat anti-mouse IgG and IRDye 680RD goat anti-rabbit IgG from LI-COR Biosciences. Fluorescent westerns were imaged using the Odyssey Infrared Imaging System (LI-COR Biosciences). Signals were quantified by measuring the integrated intensity values of each band using Odyssey software (LI-COR Biosciences).
(§2) We next evaluated the ability of buparlisib to inhibit cellular signaling downstream of PI3K. Increasing doses were added to cells and phosphorylation of signaling molecules was examined by immunoblot after one hour of treatment (Fig 2A). […] Phospho-Akt levels were normalized to levels of total Akt and fit to dose-response curves to calculate the half maximal inhibitory concentration (IC50) (Fig 2B).
(§3) Each data point represents the average of at least three independent experiments.

[2] = test system: pediatric sarcoma cell lines; assay: Cell viability assay (MTT), panel of sarcoma cell lines; assay type: cell-based
phospho-4E-BP1 (T37/46) = assay: Immunoblot of signaling downstream of mTORC1; assay type: cell-based
Protocol: as §1, §2, §3

phospho-p70 S6K (T389) = assay: Immunoblot of signaling downstream of mTORC1; assay type: cell-based; details: increasing doses; one hour; compared with 4E-BP1
Protocol: as §1, §2, §3

phospho-Akt (S473) [3] = assay: Immunoblot (quantitative) of Akt phosphorylation; assay type: cell-based
PI3K = test system: PI3K; parameters: method as in PMID 22188813; details: cited from earlier work
MCF-7 = assay: Cell viability assay (MTT), 72 h; details: read-out: Buparlisib cell viability IC50, MCF-7 (breast), PIK3CA E545K
Protocol: Cells were seeded in 96-well plates and drugs were added after overnight incubation, with each treatment condition performed in triplicate. After drug treatment, 10 μl of 5 mg/ml MTT (3-(4,5-dimethylthiazolyl-2)-2, 5-diphenyltetrazolium bromide) in PBS was added to cells and allowed to incubate for 2–4 hours at 37°C. […] Plate absorbance was read at 595 nm using a Bio-rad microplate reader. Percent viability was calculated by normalizing absorbance values to those from cells grown in media without drug after background subtraction. IC50 values were calculated by fitting dose-response curves to a four-parameter, variable slope sigmoid dose-response model (Prism Software, GraphPad).

SMILES: Nc1cc(C(F)(F)F)c(-c2cc(N3CCOCC3)nc(N3CCOCC3)n2)cn1 [Buparlisib]
- IC50 (TC-174): 1040 nM
- IC50 (A4573): 1560 nM
- IC50 6647: 1010 nM
- IC50 5838: 1610 nM
- IC50 (SKES): 822 nM
- IC50 (SK-N-MC): 899 nM
- IC50 (TTC-475): 1020 nM
- IC50 (KHOS): 1570 nM
- IC50 (HOS): 1840 nM
- IC50 (MNNG): 1600 nM
- IC50 (KHOS 312H): 1590 nM
- IC50 (SJSA): 1450 nM
- IC50 (HT161): 1080 nM
- IC50 (A204): 526 nM
- IC50 (phospho-Akt (S473) [1]; 1 h, 6647 (ES), phospho-Akt S473 normalized to total Akt, read-out: Buparlisib Akt phosphorylation IC50): 568 nM
- IC50 (phospho-Akt (S473) [1]; 1 h, HOS (OS), phospho-Akt S473 normalized to total Akt, read-out: Buparlisib Akt phosphorylation IC50): 222 nM
- IC50 (phospho-Akt (S473) [1]; 1 h, KHOS (OS), phospho-Akt S473 normalized to total Akt, read-out: Buparlisib Akt phosphorylation IC50): 109 nM
- IC50 (phospho-Akt (S473) [1]; 1 h, MNNG (OS), phospho-Akt S473 normalized to total Akt, read-out: Buparlisib Akt phosphorylation IC50): 296 nM
- IC50 (phospho-Akt (S473) [1]; 1 h, RD (RMS), phospho-Akt S473 normalized to total Akt, read-out: Buparlisib Akt phosphorylation IC50): 166 nM
- IC50 (phospho-Akt (S473) [1]; 1 h, SJCRH30 (RMS), phospho-Akt S473 normalized to total Akt, read-out: Buparlisib Akt phosphorylation IC50): 200 nM
- IC50 (phospho-Akt (S473) [1]; 1 h, TC-174 (ES), phospho-Akt S473 normalized to total Akt, read-out: Buparlisib Akt phosphorylation IC50): 313 nM
- IC50 (phospho-Akt (S473) [1]; 1 h, range over the cell lines tested, largest values in cell lines that lack PTEN expression, read-out: phospho-Akt (S473) IC50, range over cell lines): 64 to 916 nM
- IC50 (phospho-Akt (S473) [1]; A4573, 1 h, A4573 (ES), phospho-Akt S473 normalized to total Akt, read-out: Buparlisib Akt phosphorylation IC50): 916 nM
- IC50 (phospho-Akt (S473) [1]; Homo sapiens, A204, 1 h, A204 (RMS), phospho-Akt S473 normalized to total Akt, read-out: Buparlisib Akt phosphorylation IC50): 63.7 nM
- IC50 (phospho-Akt (S473) [1]; Homo sapiens, MCF7, 1 h, MCF-7 (breast), PIK3CA E545K, phospho-Akt S473 normalized to total Akt, read-out: Buparlisib Akt phosphorylation IC50): 251 nM
- IC50 (phospho-Akt (S473) [1]; Homo sapiens, TC-32, 1 h, TC-32 (ES), phospho-Akt S473 normalized to total Akt, read-out: Buparlisib Akt phosphorylation IC50): 280 nM
- IC50 (phospho-Akt (S473) [1]; KHOS-240S, 1 h, KHOS 240S (OS), phospho-Akt S473 normalized to total Akt, read-out: Buparlisib Akt phosphorylation IC50): 198 nM
- rapamycin-mediated Akt activation (phospho-Akt (S473) [1]; buparlisib added to rapamycin, A4573 cells): reduced rapamycin-mediated Akt activation
- Phosphorylation of Akt at serine 473 and threonine 308 (phospho-Akt (S473) [1]; increasing doses, one hour of treatment, TC-32, KHOS, RD): inhibited
- IC50 ([2]; ES and RMS cell lines in general, 72 h, read-out: cell viability IC50): ~1000 nM
- concentrations at which synergistic effects were observed ([2]; buparlisib concentration in combination therapy): under 1 μM
- combination effect on cell viability ([2]; combined with rapamycin, four cell lines (TC-32, A673, RD, A4573), 72 h): Synergy
- combination effect on cell viability ([2]; combined with trametinib, cell lines with (A673, RD) and without (TC-32, A4573) MAPK pathway mutations, 72 h): Synergistic effects were only observed in cell lines that contained MAPK pathway mutations
- combination effect on cell viability ([2]; in combination with NVP-AEW541, ES and RMS cell lines, 72 h): Synergy
- combination effect on cell viability ([2]; in combination with NVP-AEW541, OS cell lines (MNNG), 72 h): additive effects
- IC50 ([2]; median over sarcoma cell lines, 72 h, read-out: median IC50 value, cellular proliferation): 1100 nM
- combination effect on cell viability ([2]; sequential treatment doxorubicin (4 h) then buparlisib (72 h), ratio 20:3, ES and OS cell lines): additive
- Inhibition of phospho-4E-BP1 (phospho-4E-BP1 (T37/46); increasing doses, one hour): only observed at high buparlisib concentrations
- phosphorylation of 4E-BP1 (phospho-4E-BP1 (T37/46); treatment with both buparlisib and rapamycin, A4573 cells): more potently suppressed
- Phosphorylation of S6K (phospho-p70 S6K (T389)): more potently inhibited
- phospho-Akt levels compared to each drug alone (phospho-Akt (S473) [3]; combination with NVP-AEW541, A4573 cells, one hour of treatment): reduced phospho-Akt levels
- time to maximum inhibition of Akt (phospho-Akt (S473) [3]; time course 5 min to 24 h, 1 μM (3 μM in A4573)): approximately one
- specificity to PI3K versus other protein kinases (PI3K): at least 50 fold
- IC50 (MCF-7; Homo sapiens, MCF7, 72 h): 173 nM
- IC50 (MCF-7): 173 nM
